Assays:
opioid receptors = conditions: Wikler, A., Int. J. of the Addictions 12(7) 869, 1977; cited from earlier work
chronic constipation [1] = experiment: Table 1: five inpatient and outpatient studies on Patient Number 1 (chronic constipation): fecal weight, fecal fat, symptoms; type: in vivo, human
Excerpt: The tables set forth the significant details and results of a number of studies conducted with different patients suffering from various forms of intestinal dysmotility. […] The first study was of two days duration. The lengths of subsequent studies are as indicated.
The reports Tables 1 to 5 are for patients with chronic constipation. Those in Tables 6, 7 and 8 are for patients with irritable bowel syndrome.

chronic constipation [2] = experiment: Example I: stool weight of a patient with chronic constipation given naloxone (single blind, placebo first); type: in vivo, human
Experimental: A person with a history of chronic constipation for a period of over twenty years, requiring daily use of large doses of laxatives plus frequent enemas, was admitted to the research hospital on day one at approximately 4:00 p.m. They were given a standard laxative regimen documented to be inadequate to effect a spontaneous bowel movement, and placed on a high residue diet.
During the first 24 hours they were treated with a placebo (Infusion A) according to the following schedule:
The total dosage per day was 21.6 mg.
During the five days that the patient was under hospital care the stools were collected and weighed. The results were as follows:
The experiment was conducted as a single blind. The patient was not aware of whether they were receiving a placebo or the active agent.

chronic constipation [3] = experiment: Example II: stool weight of a second patient with chronic constipation given naloxone; type: in vivo, human
Excerpt: A second patient with a history of over twenty years of chronic constipation, intractable to laxatives, who for the past several months was only relieved by enema treatment was admitted to the hospital and placed on a high residue diet.

[4] = Adverse effects by clinical examination, blood and urine analysis in Examples I and II; type: in vivo, human
Excerpt: Samples of the patient's blood and urine were collected each day and subjected to analysis.

[5] = Patient Number 1, Study #1 (inpatient), i.v., Study Day 2, total 24 hour dose 29.2 mg
[6] = Patient Number 1, Study #2 (inpatient), p.o., Study Day 1, total 24 hour dose 21.6 mg
[7] = Patient Number 1, Study #2 (inpatient), p.o., Study Day 2, total 24 hour dose 21.6 mg
[8] = Patient Number 1, Study #2 (inpatient), p.o., Study Day 3, total 24 hour dose 21.6 mg
[9] = Day 2, naloxone intravenous (29.2 mg per Table 1)
[10] = Day 3, naloxone oral 21.6 mg per day
[11] = Day 4, naloxone oral 21.6 mg per day
[12] = Day 5, naloxone oral 21.6 mg per day
[13] = Day 1, 29.2 mg naloxone, intravenous

O=C1CC[C@@]2(O)[C@H]3Cc4ccc(O)c5c4[C@@]2(CCN3CC2CC2)[C@H]1O5 [Naltrexone, N-cyclopropylmethyl-14-hydroxydihydronormorphinone]
agonistic activity (opioid receptors): slight agonistic activity

C=CCN1CC[C@]23c4c5ccc(O)c4O[C@H]2C(=O)CC[C@@]3(O)[C@H]1C5 [naloxone, N-allyl-14-hydroxydihydronormorphinone]
Fecal Dry Wt. (gm) (chronic constipation [1]; [5]): 52 gm | Fecal Wet Wt. (gm) (chronic constipation [1]; [5]): 649 gm | Symptoms, Signs, Comments (chronic constipation [1]; [5]): Marked improvement | Fecal Dry Wt. (gm) (chronic constipation [1]; [6]): 77 gm | Fecal Wet Wt. (gm) (chronic constipation [1]; [6]): 985 gm | Symptoms, Signs, Comments (chronic constipation [1]; [6]): Marked improvement | Fecal Dry Wt. (gm) (chronic constipation [1]; [7]): 77 gm | Fecal Wet Wt. (gm) (chronic constipation [1]; [7]): 997 gm | Symptoms, Signs, Comments (chronic constipation [1]; [7]): Marked improvement | Fecal Dry Wt. (gm) (chronic constipation [1]; [8]): 65 gm | Fecal Wet Wt. (gm) (chronic constipation [1]; [8]): 806 gm | Symptoms, Signs, Comments (chronic constipation [1]; [8]): Marked improvement | Symptoms, Signs, Comments (chronic constipation [1]; Patient Number 1, Study #3 (outpatient), p.o., Study Day 1, total 24 hour dose 21.6 mg): Average day | Symptoms, Signs, Comments (chronic constipation [1]; Patient Number 1, Study #3 (outpatient), p.o., Study Day 2, total 24 hour dose 21.6 mg): Better than average day | Symptoms, Signs, Comments (chronic constipation [1]; Patient Number 1, Study #3 (outpatient), p.o., Study Day 3, total 24 hour dose 21.6 mg): Much better than average day | Fecal Wet Wt. (gm) (chronic constipation [1]; Patient Number 1, Study #4 (inpatient), i.v., Study Day 2, total 24 hour dose 29.2 mg): 775 gm | Fecal Wet Wt. (gm) (chronic constipation [1]; Patient Number 1, Study #4 (inpatient), i.v., Study Day 3, total 24 hour dose 29.2 mg): 859 gm | Symptoms, Signs, Comments (chronic constipation [1]; Patient Number 1, Study #5 (outpatient), route not given, Study Day 1, total 24 hour dose 21.6 mg): Much better than average | Symptoms, Signs, Comments (chronic constipation [1]; Patient Number 1, Study #5 (outpatient), route not given, Study Day 2, total 24 hour dose 21.6 mg): Much better than average | Symptoms, Signs, Comments (chronic constipation [1]; Patient Number 1, Study #5 (outpatient), route not given, Study Day 3, total 24 hour dose 21.6 mg): Much better than average | STOOL WEIGHT GRAMS Wet Weight (chronic constipation [2]; [9]): 649 Grams | Stool Weight Grams Dry Weight (chronic constipation [2]; [9]): 52 Grams | STOOL WEIGHT GRAMS Wet Weight (chronic constipation [2]; [10]): 985 Grams | Stool Weight Grams Dry Weight (chronic constipation [2]; [10]): 77 Grams | STOOL WEIGHT GRAMS Wet Weight (chronic constipation [2]; [11]): 997 Grams | Stool Weight Grams Dry Weight (chronic constipation [2]; [11]): 77 Grams | STOOL WEIGHT GRAMS Wet Weight (chronic constipation [2]; [12]): 806 Grams | Stool Weight Grams Dry Weight (chronic constipation [2]; [12]): 65 Grams | STOOL WEIGHT GRAMS Wet Weight (chronic constipation [3]; [13]): 84 GRAMS | Stool Weight Grams Dry Weight (chronic constipation [3]; [13]): 18.5 GRAMS | STOOL WEIGHT GRAMS Wet Weight (chronic constipation [3]; Day 3, 14.4 mg naloxone, oral): 35 GRAMS | Stool Weight Grams Dry Weight (chronic constipation [3]; Day 3, 14.4 mg naloxone, oral): 8.2 GRAMS | STOOL WEIGHT GRAMS Wet Weight (chronic constipation [3]; Day 4, 21.6 mg naloxone, oral): 125 GRAMS | Stool Weight Grams Dry Weight (chronic constipation [3]; Day 4, 21.6 mg naloxone, oral): 66.4 GRAMS | STOOL WEIGHT GRAMS Wet Weight (chronic constipation [3]; Day 5, 21.6 mg naloxone, oral): 230 GRAMS | Stool Weight Grams Dry Weight (chronic constipation [3]; Day 5, 21.6 mg naloxone, oral): 82.4 GRAMS | STOOL WEIGHT GRAMS Wet Weight (chronic constipation [3]; Day 6, 7.2 mg naloxone, oral): 34 GRAMS | adverse effects (analysis of blood and urine collected each day) ([4]; Example I patient, naloxone intravenous then oral 21.6 mg per day): No adverse effects | adverse effects (clinical examinations, blood or urine analysis) ([4]; Example II patient, naloxone 29.2 mg intravenous, then 7.2 to 21.6 mg oral): No adverse effects
